In the CheMixHub viscosity set:
Where “and” joins values, the source holds several entries; their conditions need not be identical. Identical values can stand only once. ± gives the uncertainty stated by the source.

Test: xn = mol fraction of the nth substance listed

CCCCCOC(C)=O + Cc1cccc(O)c1
viscosity (298.15 K, 101 kPa, x2 = 0.5): 1.167 ± 0.011 mPa·s

Cc1ccccc1O + Cc1cccc(O)c1
viscosity (298.15 K, 101 kPa, x1 = 0.1537): 12.16 ± 0.19 mPa·s
viscosity (298.15 K, 101 kPa, x1 = 0.3061): 11.09 ± 0.17 mPa·s
viscosity (298.15 K, 101 kPa, x1 = 0.3536): 10.75 ± 0.16 mPa·s
viscosity (298.15 K, 101 kPa, x1 = 0.3954): 10.5 ± 0.16 mPa·s
viscosity (298.15 K, 101 kPa, x1 = 0.506): 9.939 ± 0.15 mPa·s
viscosity (298.15 K, 101 kPa, x1 = 0.6371): 9.208 ± 0.13 mPa·s
viscosity (298.15 K, 101 kPa, x1 = 0.7608): 8.582 ± 0.12 mPa·s
viscosity (298.15 K, 101 kPa, x1 = 0.8803): 8.086 ± 0.12 mPa·s
viscosity (313.15 K, 101.3 kPa, x2 = 0.1): 4.379 ± 0.051 mPa·s
viscosity (313.15 K, 101.3 kPa, x2 = 0.2): 4.539 ± 0.053 mPa·s
viscosity (313.15 K, 101.3 kPa, x2 = 0.3): 4.689 ± 0.055 mPa·s
viscosity (313.15 K, 101.3 kPa, x2 = 0.4): 4.861 ± 0.057 mPa·s
viscosity (313.15 K, 101.3 kPa, x2 = 0.5): 5.048 ± 0.06 mPa·s
viscosity (313.15 K, 101.3 kPa, x2 = 0.6): 5.248 ± 0.062 mPa·s
viscosity (313.15 K, 101.3 kPa, x2 = 0.7): 5.462 ± 0.065 mPa·s
viscosity (313.15 K, 101.3 kPa, x2 = 0.8): 5.693 ± 0.068 mPa·s
viscosity (313.15 K, 101.3 kPa, x2 = 0.9): 5.966 ± 0.071 mPa·s
viscosity (323.15 K, 101.3 kPa, x2 = 0.1): 3.086 ± 0.037 mPa·s
viscosity (323.15 K, 101.3 kPa, x2 = 0.2): 3.145 ± 0.037 mPa·s
viscosity (323.15 K, 101.3 kPa, x2 = 0.3): 3.235 ± 0.039 mPa·s
viscosity (323.15 K, 101.3 kPa, x2 = 0.4): 3.32 ± 0.04 mPa·s
viscosity (323.15 K, 101.3 kPa, x2 = 0.5): 3.417 ± 0.041 mPa·s
viscosity (323.15 K, 101.3 kPa, x2 = 0.6): 3.543 ± 0.043 mPa·s
viscosity (323.15 K, 101.3 kPa, x2 = 0.7): 3.666 ± 0.044 mPa·s
viscosity (323.15 K, 101.3 kPa, x2 = 0.8): 3.805 ± 0.046 mPa·s
viscosity (323.15 K, 101.3 kPa, x2 = 0.9): 3.949 ± 0.048 mPa·s

CC(C)(C)c1ccccc1 + Cc1ccccc1
viscosity (303.15 K, 101.3 kPa, x2 = 0.0457): 0.974 ± 0.0079 mPa·s
viscosity (303.15 K, 101.3 kPa, x2 = 0.0865): 0.949 ± 0.0077 mPa·s
viscosity (303.15 K, 101.3 kPa, x2 = 0.2449): 0.8605 ± 0.007 mPa·s
viscosity (303.15 K, 101.3 kPa, x2 = 0.3937): 0.7829 ± 0.0064 mPa·s
viscosity (303.15 K, 101.3 kPa, x2 = 0.4453): 0.7568 ± 0.0062 mPa·s
viscosity (303.15 K, 101.3 kPa, x2 = 0.5167): 0.7206 ± 0.006 mPa·s
viscosity (303.15 K, 101.3 kPa, x2 = 0.6672): 0.6507 ± 0.0055 mPa·s
viscosity (303.15 K, 101.3 kPa, x2 = 0.7678): 0.6057 ± 0.0052 mPa·s
viscosity (303.15 K, 101.3 kPa, x2 = 0.8687): 0.5626 ± 0.0049 mPa·s
viscosity (303.15 K, 101.3 kPa, x2 = 0.957): 0.5317 ± 0.0047 mPa·s
viscosity (303.15 K, 101.3 kPa, x2 = 0.9788): 0.5253 ± 0.0047 mPa·s

CCCCCC + Cc1ccccc1
viscosity (298.15 K, 101 kPa, x1 = 0.1): 0.5021 ± 0.0065 mPa·s
viscosity (298.15 K, 101 kPa, x1 = 0.121): 0.504 ± 0.014 mPa·s
viscosity (298.15 K, 101 kPa, x1 = 0.2): 0.4602 ± 0.0059 mPa·s
viscosity (298.15 K, 101 kPa, x1 = 0.211): 0.471 ± 0.013 mPa·s
viscosity (298.15 K, 101 kPa, x1 = 0.299): 0.443 ± 0.012 mPa·s
viscosity (298.15 K, 101 kPa, x1 = 0.3): 0.4254 ± 0.0055 mPa·s
viscosity (298.15 K, 101 kPa, x1 = 0.4): 0.3964 ± 0.0052 mPa·s
viscosity (298.15 K, 101 kPa, x1 = 0.5): 0.372 ± 0.0049 mPa·s
viscosity (298.15 K, 101 kPa, x1 = 0.6): 0.3513 ± 0.0046 mPa·s and 0.37 ± 0.01 mPa·s
viscosity (298.15 K, 101 kPa, x1 = 0.7): 0.3336 ± 0.0044 mPa·s
viscosity (298.15 K, 101 kPa, x1 = 0.712): 0.349 ± 0.01 mPa·s
viscosity (298.15 K, 101 kPa, x1 = 0.799): 0.335 ± 0.009 mPa·s
viscosity (298.15 K, 101 kPa, x1 = 0.8): 0.3186 ± 0.0042 mPa·s
viscosity (298.15 K, 101 kPa, x1 = 0.9): 0.3059 ± 0.0041 mPa·s
viscosity (298.15 K, 101 kPa, x2 = 0.1483): 0.321 ± 0.0041 mPa·s
viscosity (298.15 K, 101 kPa, x2 = 0.1826): 0.333 ± 0.0042 mPa·s
viscosity (298.15 K, 101 kPa, x2 = 0.2169): 0.34 ± 0.0043 mPa·s
viscosity (298.15 K, 101 kPa, x2 = 0.2524): 0.348 ± 0.0044 mPa·s
viscosity (298.15 K, 101 kPa, x2 = 0.2897): 0.36 ± 0.0045 mPa·s
viscosity (298.15 K, 101 kPa, x2 = 0.3286): 0.366 ± 0.0046 mPa·s
viscosity (298.15 K, 101 kPa, x2 = 0.3707): 0.377 ± 0.0047 mPa·s
viscosity (298.15 K, 101 kPa, x2 = 0.4105): 0.3865 ± 0.0048 mPa·s
viscosity (298.15 K, 101 kPa, x2 = 0.4556): 0.3985 ± 0.0049 mPa·s
viscosity (298.15 K, 101 kPa, x2 = 0.5039): 0.4115 ± 0.0051 mPa·s
viscosity (298.15 K, 101 kPa, x2 = 0.552): 0.426 ± 0.0053 mPa·s
viscosity (298.15 K, 101 kPa, x2 = 0.6002): 0.44 ± 0.0054 mPa·s
viscosity (298.15 K, 101 kPa, x2 = 0.6539): 0.457 ± 0.0056 mPa·s
viscosity (298.15 K, 101 kPa, x2 = 0.6976): 0.471 ± 0.0058 mPa·s
viscosity (298.15 K, 101 kPa, x2 = 0.7444): 0.486 ± 0.0059 mPa·s
viscosity (298.23 K, 100 kPa, x1 = 0.5): 0.3708 ± 0.03 mPa·s
viscosity (298.28 K, 100 kPa, x1 = 0.25): 0.4404 ± 0.035 mPa·s
viscosity (298.3 K, 100 kPa, x1 = 0.75): 0.3227 ± 0.026 mPa·s
viscosity (303.15 K, 101.33 kPa, x1 = 0.0826): 0.4983 ± 0.0051 mPa·s
viscosity (303.15 K, 101.33 kPa, x1 = 0.1685): 0.4637 ± 0.0049 mPa·s
viscosity (303.15 K, 101.33 kPa, x1 = 0.2578): 0.4362 ± 0.0046 mPa·s
viscosity (303.15 K, 101.33 kPa, x1 = 0.3509): 0.4117 ± 0.0044 mPa·s
viscosity (303.15 K, 101.33 kPa, x1 = 0.4477): 0.3884 ± 0.0042 mPa·s
viscosity (303.15 K, 101.33 kPa, x1 = 0.5487): 0.3671 ± 0.004 mPa·s
viscosity (303.15 K, 101.33 kPa, x1 = 0.6541): 0.3492 ± 0.0039 mPa·s
viscosity (303.15 K, 101.33 kPa, x1 = 0.7643): 0.3299 ± 0.0037 mPa·s
viscosity (303.15 K, 101.33 kPa, x1 = 0.8795): 0.3136 ± 0.0036 mPa·s
viscosity (308.15 K, 101 kPa, x1 = 0.121): 0.448 ± 0.012 mPa·s
viscosity (308.15 K, 101 kPa, x1 = 0.211): 0.42 ± 0.012 mPa·s
viscosity (308.15 K, 101 kPa, x1 = 0.299): 0.395 ± 0.011 mPa·s
viscosity (308.15 K, 101 kPa, x1 = 0.448): 0.361 ± 0.01 mPa·s
viscosity (308.15 K, 101 kPa, x1 = 0.6): 0.332 ± 0.009 mPa·s
viscosity (308.15 K, 101 kPa, x1 = 0.712): 0.314 ± 0.009 mPa·s
viscosity (308.15 K, 101 kPa, x1 = 0.799): 0.302 ± 0.008 mPa·s
viscosity (313.15 K, 101.33 kPa, x1 = 0.0826): 0.4542 ± 0.0048 mPa·s
viscosity (313.15 K, 101.33 kPa, x1 = 0.1685): 0.4265 ± 0.0045 mPa·s
viscosity (313.15 K, 101.33 kPa, x1 = 0.2578): 0.4033 ± 0.0043 mPa·s
viscosity (313.15 K, 101.33 kPa, x1 = 0.3509): 0.3782 ± 0.0041 mPa·s
viscosity (313.15 K, 101.33 kPa, x1 = 0.4477): 0.3592 ± 0.004 mPa·s
viscosity (313.15 K, 101.33 kPa, x1 = 0.5487): 0.3375 ± 0.0038 mPa·s
viscosity (313.15 K, 101.33 kPa, x1 = 0.6541): 0.3202 ± 0.0036 mPa·s
viscosity (313.15 K, 101.33 kPa, x1 = 0.7643): 0.3043 ± 0.0035 mPa·s
viscosity (313.15 K, 101.33 kPa, x1 = 0.8795): 0.2896 ± 0.0034 mPa·s
viscosity (323.15 K, 101 kPa, x1 = 0.121): 0.382 ± 0.011 mPa·s
viscosity (323.15 K, 101 kPa, x1 = 0.211): 0.36 ± 0.01 mPa·s
viscosity (323.15 K, 101 kPa, x1 = 0.299): 0.341 ± 0.01 mPa·s
viscosity (323.15 K, 101 kPa, x1 = 0.448): 0.314 ± 0.009 mPa·s
viscosity (323.15 K, 101 kPa, x1 = 0.6): 0.292 ± 0.008 mPa·s
viscosity (323.15 K, 101 kPa, x1 = 0.712): 0.278 ± 0.008 mPa·s
viscosity (323.15 K, 101 kPa, x1 = 0.799): 0.255 ± 0.007 mPa·s
viscosity (323.15 K, 101.33 kPa, x1 = 0.0826): 0.4006 ± 0.0043 mPa·s
viscosity (323.15 K, 101.33 kPa, x1 = 0.1685): 0.3747 ± 0.0041 mPa·s
viscosity (323.15 K, 101.33 kPa, x1 = 0.2578): 0.3545 ± 0.0039 mPa·s
viscosity (323.15 K, 101.33 kPa, x1 = 0.3509): 0.3354 ± 0.0037 mPa·s
viscosity (323.15 K, 101.33 kPa, x1 = 0.4477): 0.3184 ± 0.0036 mPa·s
viscosity (323.15 K, 101.33 kPa, x1 = 0.5487): 0.3022 ± 0.0035 mPa·s
viscosity (323.15 K, 101.33 kPa, x1 = 0.6541): 0.2867 ± 0.0033 mPa·s
viscosity (323.15 K, 101.33 kPa, x1 = 0.7643): 0.2736 ± 0.0032 mPa·s
viscosity (323.15 K, 101.33 kPa, x1 = 0.8795): 0.262 ± 0.0031 mPa·s
